Data as given in patent US8293979B2, “Weed controller metabolism proteins, genes, thereof and use of the same” (Sumitomo Chemical Company, Limited, priority 2001, dated 2012).

Key:
[1] = system: leaf pieces of the tobacco to which the present invention DNA (A1)S has been introduced; assay: Evaluation of the resistance utilizing a leaf piece of the present invention DNA (A1)S transgenic tobacco; assay type: cell-based; details: 1 point continuously grew, 0.5 halfly withered, 0 turned white and withered
Protocol: Next, other than culturing overnight the transgenic agrobacterium bearing the above plasmid at 30° C. in LB liquid medium containing 25 mg/L kanamycin, said agrobacterium were utilized to introduce genes into tobacco according to the method described in Example 19. There were obtained, respectively, transgenic tobaccos which have incorporated the T-DNA region of pBI-NdG6-rSt-657soy or pBI-NdG6-rSt12-657soy.
Leaves were taken from 35 transgenic tobaccos obtained in Example 47(9). Each leaf was divided into pieces in which each piece was 5 to 7 mm wide. Leaf pieces were planted onto MS agar medium containing 0, 0.05, 0.1 or 0.2 mg/L of compound (II) and cultured in the light at room temperature. On the 11th day of culturing, the herbicidal damage of each of the leaf pieces was observed. Further, leaf pieces were planted onto MS agar mediums containing 0, 0.01, 0.02, 0.05 or 0.1 mg/L of compound (XII) and cultured in the light at room temperature. On the 7th day of culturing, the herbicidal damage of each of the leaf pieces was observed. […] An average score for each group was determined by scoring 1 point to a leaf piece that continuously grew, 0.5 points to a halfly withered leaf piece in which chemical damage was observed, and 0 points to a leaf piece which turned white and had withered. […]

[2] = system: present invention protein (A3); assay: Metabolism of compounds by the present invention protein (A3), reaction solution, HPLC; assay type: in vitro ADME, Streptomyces testaceus ATCC21469; details: 5 ppm of compound, components A, B, C, 20 μl supernatant fraction of Example 12(2), 30° C. for 10 minutes
[3] = system: present invention protein (A20); assay: Metabolism of compounds by the present invention protein (A20), reaction solution, HPLC; assay type: in vitro ADME, Streptomyces lanatus IFO 12787T; details: 12.5 ppm of compound, components A, B, C, 20 μl supernatant fraction of Example 57(2), 30° C. for 10 minutes
[4] = system: present invention protein (A1); assay: Metabolism of compounds by the present invention protein (A1), reaction solution, HPLC; assay type: in vitro ADME, Streptomyces phaeochromogenes IFO12898; details: 5 ppm of compound, components A, B, C, 20 μl supernatant fraction of Example 4(2), 30° C. for 10 minutes
Protocol: There was prepared 100 μl of a reaction solution of 50 mM potassium phosphate buffer (pH7.0) containing 5 ppm of compound (XII), 3 mM of […] (hereinafter, referred to as “component A”) (Oriental Yeast Company), 1 mg/ml of a ferredoxin derived from spinach (hereinafter referred to as “component B”) (Sigma Company), 0.15 U/ml of ferredoxin reductase (hereinafter, referred to as “component C”) (Sigma Company) and 20 μl of the supernatant fraction recovered in Example 4(2). The reaction solution was maintained at 30° C. for 10 minutes. Further, there was prepared and maintained similarly 100 μl of a reaction solution of a 50 mM potassium phosphate buffer (pH 7.0) having no addition of at least one component utilized in the composition of the above reaction solution, selected from component A, component B, component C and the supernatant fraction prepared in Example 4(2). Ten microliters (10 μl) of 2N HCl and 500 μl of ethyl acetate were added and mixed into each of the reaction solutions after the maintenance. The resulting reaction solutions were centrifuged at 8,000×g to recover 490 μl of the ethyl acetate layer. After drying the ethyl acetate layers under reduced pressure, the residue was dissolved in 100 μl of 50 mM of potassium phosphate buffer (pH7.0). Forty microliters (40 μl) of the fraction solutions (hereinafter, the fraction solution derived from the reaction solution containing component A, component B, component C and 20 μl of supernatant fraction recovered in Example 4(2) is referred to as “(XII) metabolism solution (A1);” further, the fraction solution derived from the reaction solution containing no component A, no component B, no component C and no supernatant fraction recovered in Example 4(2) is referred to as “(XII) control solution (A1)”) were analyzed on a HPLC. Compared to the concentration of compound (XII) detected from (XII) control solution (A1), the concentration of compound (XII) detected from (XII) metabolism solution (A1) was lower. Further a peak, which was not detected from the (XII) control solution (A1), was detected from the (XII) metabolism solution (A1). Mass spectrometry was conducted for the compound contained in such a peak. The mass of the compound contained in such a peak was 14 smaller than the mass of compound (XII).
Other than utilizing 5 ppm of compound (XIII) instead of 5 ppm of compound (XII), reaction solutions were prepared and maintained similarly to the method described in Example 41(2). […] Compared to the concentration of compound (XIII) detected from (XIII) control solution (A1), the concentration of compound (XIII) detected from (XIII) metabolism solution (A1) was lower. Further a peak, which was not detected from the (XIII) control solution (A1), was detected from the (XIII) metabolism solution (A1). […]

[5] = system: present invention protein (A19); assay: Metabolism of compounds by the present invention protein (A19), reaction solution, HPLC; assay type: in vitro ADME, Streptomyces griseus IFO 13849T; details: 12.5 ppm of compound, components A, B, C, 20 μl supernatant fraction of Example 55(2), 30° C. for 10 minutes
[6] = system: present invention protein (A15); assay: Metabolism of compounds by the present invention protein (A15), reaction solution, HPLC; assay type: in vitro ADME, Streptomyces olivochromogenes IFO 12444; details: 5 ppm of compound, components A, B, C, 20 μl supernatant fraction of Example 40(2), 30° C. for 10 minutes

C[C@@H](Oc1cc(-n2c(=O)cc(C(F)(F)F)n(C)c2=O)c(F)cc1Cl)C(=O)O [compound (II)] was tested, and the “average score of leaf pieces compared with the wild type tobacco” value ([1]; MS agar medium containing 0, 0.05, 0.1 or 0.2 mg/L of compound (II), 11th day) was “higher”.
In the case of Cn1c(C(F)(F)F)cc(=O)n(-c2cc(Oc3cccnc3OCC(=O)O)c(Cl)cc2F)c1=O [compound (XII)], the “concentration of the compound detected from metabolism solution (A3) compared to control solution (A3)” value [2] is reported as “lower”, the “average score of leaf pieces compared with the wild type tobacco” value ([1]; MS agar mediums containing 0, 0.01, 0.02, 0.05 or 0.1 mg/L of compound (XII), 7th day) is reported as “higher” and the “concentration of the compound detected from metabolism solution (A20) compared to control solution (A20)” value [3] is reported as “lower”. For the same molecule, the “concentration of the compound detected from metabolism solution (A1) compared to control solution (A1)” value [4] was “lower”, the “concentration of the compound detected from metabolism solution (A19) compared to control solution (A19)” value [5] was “lower” and the “concentration of the compound detected from metabolism solution (A15) compared to control solution (A15)” value [6] was “lower”.
Cn1c(C(F)(F)F)cc(=O)n(-c2cc(Oc3ccccc3OCC(=O)O)c(Cl)cc2F)c1=O [compound (XIII)] was tested, and the “concentration of the compound detected from metabolism solution (A3) compared to control solution (A3)” value [2] was “lower”, the “concentration of the compound detected from metabolism solution (A20) compared to control solution (A20)” value [3] was “lower” and the “concentration of the compound detected from metabolism solution (A1) compared to control solution (A1)” value [4] was “lower”. The “concentration of the compound detected from metabolism solution (A19) compared to control solution (A19)” value [5] was “lower” and the “concentration of the compound detected from metabolism solution (A15) compared to control solution (A15)” value [6] was “lower”.
